The text below walks through data of article PMC3005981 (Basic & clinical pharmacology & toxicology, 2010).

The structures appear in SMILES notation.

The conditions of data set [1]: most incubates; limit of detection approximately 1.0 ng/ml.
In data set [2] the target is CYP3A4 (Homo sapiens, UniProt P08684). Kind of data set: in vitro. To be noted: recombinant enzyme, Supersome.
Another data set has as its system CYP3A4/5. Nature of the data set: in vitro. Conditions: human, microsomes, HLM.
For a further data set, the system named is CYP2C9*1. Nature of the data set: Methadone metabolism in cDNA-expressed CYP Supersomes, with abundance scaling.
The next data set relates to CYP2A6. The description is as above.
The next data set concerns CYP2C18. Described as above. Conditions: Abundance from Immunquantitation.
For a further data set, the system named is CYP2C19. The data set is described as above.
In a further data set the test system is CYP1A2. The data set is described as above.
The next data set deals with CYP2B6. Described as above.
In a further data set the test system is CYP2C8. The data set is described as above.
Data set [3] concerns CYP3A (testosterone 6β-hydroxylation). Nature of the data set: Correlation of EDDP formation with CYP-specific activity in 15 phenotyped HLMs. Conditions: 15 HLMs; 750 ng/ml methadone, 0.5 mg/ml protein, 30 min; p<0.05.
In data set [4] the test system is CYP3A4. Kind of data set: Methadone metabolism in cDNA-expressed CYP Supersomes, with abundance scaling.
Another data set deals with CYP2D6*1. The data set is described as above.
Data set [5] relates to CYP2D6. Nature of the data set: Inhibition of methadone N-demethylation. Conditions: human, microsomes, Inhibition of (R)- and (S)-EDDP formation, HLM with high CYP2D6 activity.
In data set [6] the target is CYP2D6 (Homo sapiens, UniProt P10635). Kind of data set: in vitro. Conditions: recombinant enzyme.
CYP2D6 (Homo sapiens, UniProt P10635), sequence (P10635 whole entry): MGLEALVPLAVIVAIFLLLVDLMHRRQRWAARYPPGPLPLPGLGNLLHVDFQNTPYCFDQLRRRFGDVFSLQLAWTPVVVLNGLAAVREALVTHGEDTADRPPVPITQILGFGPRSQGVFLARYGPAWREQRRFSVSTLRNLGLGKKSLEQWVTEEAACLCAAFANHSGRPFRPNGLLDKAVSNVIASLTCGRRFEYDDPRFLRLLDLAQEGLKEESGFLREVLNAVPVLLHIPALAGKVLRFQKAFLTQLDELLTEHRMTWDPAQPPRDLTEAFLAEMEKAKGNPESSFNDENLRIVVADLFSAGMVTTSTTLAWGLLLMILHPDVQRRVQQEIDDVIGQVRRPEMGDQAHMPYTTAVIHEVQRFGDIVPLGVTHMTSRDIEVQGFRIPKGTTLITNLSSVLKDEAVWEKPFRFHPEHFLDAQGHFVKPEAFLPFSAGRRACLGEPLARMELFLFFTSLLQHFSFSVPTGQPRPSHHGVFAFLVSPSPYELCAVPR
The mark [7] stands for this setting: % Inhibition of (R)-EDDP production.
The mark [8] stands for this setting: % Inhibition of (S)-EDDP production.
Where [9] appears, read: Abundance from Immunquantitation.
Setting [10] is: Abundance from Relative Activity Factor.

CYP3A4 (Homo sapiens, UniProt P08684), sequence (P08684 whole entry): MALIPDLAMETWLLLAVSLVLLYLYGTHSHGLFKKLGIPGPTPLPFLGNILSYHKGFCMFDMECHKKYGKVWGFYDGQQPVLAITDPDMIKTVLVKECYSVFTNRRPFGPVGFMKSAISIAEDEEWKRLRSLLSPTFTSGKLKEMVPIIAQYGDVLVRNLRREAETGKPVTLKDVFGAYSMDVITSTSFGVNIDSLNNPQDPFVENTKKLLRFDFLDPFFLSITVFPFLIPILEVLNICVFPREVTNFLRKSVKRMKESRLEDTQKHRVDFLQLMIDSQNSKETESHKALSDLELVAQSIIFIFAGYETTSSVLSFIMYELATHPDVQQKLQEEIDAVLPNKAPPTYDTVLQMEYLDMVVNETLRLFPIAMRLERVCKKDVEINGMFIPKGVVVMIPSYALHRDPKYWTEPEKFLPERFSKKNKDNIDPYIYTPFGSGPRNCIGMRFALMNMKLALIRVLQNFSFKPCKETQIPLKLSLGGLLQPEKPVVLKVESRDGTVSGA

As for `CCC1=NC(C)CC1(c1ccccc1)c1ccccc1` (stereo not drawn) [EMDP, 2-ethyl-5-methyl-3,3-diphenylpyraline], the “EMDP production from methadone” value in data set [1] was “no EMDP production was noted”.

For `O=C(c1ccc(OCCN2CCCCC2)cc1)c1c(-c2ccc(O)cc2)sc2cc(O)ccc12` [Raloxifene, raloxifene], the values for the inhibition at 15 min, 30 µM at CYP3A4 [2] (setting [7]) and at CYP3A4 [2] (setting [8]) were 96.8% and 97.2%, respectively.

Turning to `NNC(=O)c1ccncc1` [Isoniazid, isoniazid], the inhibition at 15 min, 500 µM turned out to be 96.9% on CYP3A4 [2] (setting [7]), 96.9% at CYP3A4 [2] (setting [8]), 70.8% with CYP3A4/5 (setting [7]) and 51.4% with CYP3A4/5 (setting [8]).

For `CC=C1N(C)[C@H](C)CC1(c1ccccc1)c1ccccc1` [(R)-EDDP], the “Scaled contribution of CYP to formation of R- and S-EDDP” value (“Scaled contribution of CYP” below) worked out at 1.2% in the data set with CYP2C9*1 (setting [9]); 3.7% with CYP2C9*1 (setting [10]); 0.0% in the data set on CYP2A6 (setting [9]); 0.0% with CYP2A6 (setting [10]); 0.7% with CYP2C18; 14.4% with CYP2C19 (setting [9]). Besides, the “Scaled contribution of CYP” value in the data set with CYP2C19 (setting [10]) came to 5.8%; with CYP1A2 (setting [9]) it was 0.0%; in the data set on CYP1A2 (setting [10]) it was 0.0%; with CYP2B6 (setting [9]), 11.5%; in the data set on CYP2B6 (setting [10]), 17.8%; in the data set on CYP2C8 (setting [9]), 0.4%. Besides, the “Scaled contribution of CYP” value in the data set on CYP2C8 (setting [10]) was determined as 0.9%; in the data set with CYP3A4 [4] (setting [9]), 70.7%; with CYP3A4 [4] (setting [10]) it was 71.3%; with CYP2D6*1 (setting [9]), 1.0%; with CYP2D6*1 (setting [10]), 0.5%. Moreover, the “Correlation (r) of EDDP formation with testosterone 6β-hydroxylation catalyzed by CYP3A” value in data set [3] is 0.82.

`C=C[C@H]1C[N@@]2CC[C@H]1C[C@@H]2[C@@H](O)c1ccnc2ccc(OC)cc12` [Quinidine, quinidine] gave an inhibition at 30 min, 10 µM with CYP2D6 [5] (10 µM) of less than 30%.

For the compound `CC=C1N(C)[C@@H](C)CC1(c1ccccc1)c1ccccc1` [(S)-EDDP], the “Scaled contribution of CYP” value in the data set with CYP2C9*1 (setting [9]) was 0.4%; in the data set on CYP2C9*1 (setting [10]) it was 1.1%; with CYP2A6 (setting [9]) it was 0.0%; with CYP2A6 (setting [10]), 0.0%; in the data set with CYP2C18, 0.9%; in the data set with CYP2C19 (setting [9]), 4.4%. In addition, the “Scaled contribution of CYP” value was found to be 1.6% with CYP2C19 (setting [10]); 0.0% with CYP1A2 (setting [9]); 0.0% in the data set on CYP1A2 (setting [10]); 18.5% with CYP2B6 (setting [9]); 26.7% in the data set with CYP2B6 (setting [10]); 0.2% in the data set on CYP2C8 (setting [9]). Further, the “Scaled contribution of CYP” value in the data set on CYP2C8 (setting [10]) came out at 0.4%; with CYP3A4 [4] (setting [9]), 74.3%; with CYP3A4 [4] (setting [10]), 69.6%; in the data set on CYP2D6*1 (setting [9]), 1.3%; with CYP2D6*1 (setting [10]), 0.6%. The “Correlation (r) of EDDP formation with testosterone 6β-hydroxylation catalyzed by CYP3A” value in data set [3] was determined as 0.54.

With `Fc1ccc([C@@H]2CCNC[C@H]2COc2ccc3c(c2)OCO3)cc1` [Paroxetine, paroxetine], the inhibition at 30 min, 1 µM at CYP2D6 [6] (% Inhibition of (R)-EDDP production, Supersome) was 9.9%; on CYP2D6 [6] (% Inhibition of (S)-EDDP production, Supersome), 7.6%; at CYP2D6 [6] (Inhibition of Supersome 2D6 activity) it was less than 30%; with CYP2D6 [5] (1 µM), less than 30%.
